From patent US20060045953A1 (priority 2004, published 2006)

Molecular target: T1, hT1R1/hT1R3 umami receptor (Homo sapiens, UniProt Q7RTX0+Q7RTX1)
T1 construct: expressed in transfected cells; host or cells: HEK293 derivative stably expressing Gα15, clone I-17, expression induced with mifepristone
T1 sequence (Q7RTX1 21-841): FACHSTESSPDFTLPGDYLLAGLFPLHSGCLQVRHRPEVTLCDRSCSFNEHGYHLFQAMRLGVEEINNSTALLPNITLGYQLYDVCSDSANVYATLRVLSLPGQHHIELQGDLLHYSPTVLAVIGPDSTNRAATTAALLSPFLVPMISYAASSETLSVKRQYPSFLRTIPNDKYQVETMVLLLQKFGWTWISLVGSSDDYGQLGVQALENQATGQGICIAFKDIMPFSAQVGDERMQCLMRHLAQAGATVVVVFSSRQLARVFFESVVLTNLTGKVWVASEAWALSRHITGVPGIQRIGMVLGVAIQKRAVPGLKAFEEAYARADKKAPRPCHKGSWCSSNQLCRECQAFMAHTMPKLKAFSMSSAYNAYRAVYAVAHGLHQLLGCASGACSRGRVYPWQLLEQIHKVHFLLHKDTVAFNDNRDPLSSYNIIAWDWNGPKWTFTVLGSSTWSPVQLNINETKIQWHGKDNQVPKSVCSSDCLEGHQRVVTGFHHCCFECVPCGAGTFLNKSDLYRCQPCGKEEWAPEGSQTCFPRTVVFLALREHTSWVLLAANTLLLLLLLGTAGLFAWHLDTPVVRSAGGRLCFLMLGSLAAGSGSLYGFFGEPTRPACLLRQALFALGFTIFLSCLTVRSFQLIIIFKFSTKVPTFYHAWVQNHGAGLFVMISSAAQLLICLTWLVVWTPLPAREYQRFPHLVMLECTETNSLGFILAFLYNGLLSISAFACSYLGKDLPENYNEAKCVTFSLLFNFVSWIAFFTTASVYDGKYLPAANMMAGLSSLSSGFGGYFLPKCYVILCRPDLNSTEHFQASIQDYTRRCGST
T1 sequence (Q7RTX0 21-852): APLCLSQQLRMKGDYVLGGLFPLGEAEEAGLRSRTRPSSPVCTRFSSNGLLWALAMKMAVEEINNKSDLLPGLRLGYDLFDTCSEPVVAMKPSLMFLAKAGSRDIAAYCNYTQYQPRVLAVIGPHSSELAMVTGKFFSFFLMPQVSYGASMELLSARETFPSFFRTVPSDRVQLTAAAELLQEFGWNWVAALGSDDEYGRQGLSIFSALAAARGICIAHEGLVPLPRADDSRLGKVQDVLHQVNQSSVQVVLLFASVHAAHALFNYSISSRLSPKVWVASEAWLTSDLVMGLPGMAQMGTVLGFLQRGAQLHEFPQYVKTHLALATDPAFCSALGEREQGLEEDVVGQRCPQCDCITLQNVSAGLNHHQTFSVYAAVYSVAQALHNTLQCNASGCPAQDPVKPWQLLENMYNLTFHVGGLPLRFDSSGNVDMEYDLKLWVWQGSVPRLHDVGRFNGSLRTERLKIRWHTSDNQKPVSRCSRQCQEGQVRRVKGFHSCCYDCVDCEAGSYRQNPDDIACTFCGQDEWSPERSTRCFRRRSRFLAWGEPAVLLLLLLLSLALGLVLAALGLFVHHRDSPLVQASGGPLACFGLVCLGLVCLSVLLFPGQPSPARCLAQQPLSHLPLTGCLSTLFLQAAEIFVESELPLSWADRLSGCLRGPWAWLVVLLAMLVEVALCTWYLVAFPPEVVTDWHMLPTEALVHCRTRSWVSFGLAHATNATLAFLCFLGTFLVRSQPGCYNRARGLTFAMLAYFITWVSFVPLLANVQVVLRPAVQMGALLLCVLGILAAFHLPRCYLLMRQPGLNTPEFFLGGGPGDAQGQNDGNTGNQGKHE
Experiment: In vitro hT1R1/hT1R3 umami taste receptor activation assay (FLIPR, dose response)
Type: cell-based
Settings: Table A, Umami Amides; read-out: Umami EC50

Row | SMILES | EC50
1 | CCOc1ccc(NC(=O)c2c(Cl)ccc(Cl)c2OC)cc1 [Example A1, 3,6-Dichloro-N-(4-ethoxy-phenyl)-2-methoxy-benzamide] | 220 nM
2 | COC(=O)c1ccc(NC(=O)c2c(Cl)ccc(Cl)c2OC)cc1 [Example A2, 4-(3,6-Dichloro-2-methoxy-benzoylamino)-benzoic acid methyl ester] | 930 nM
3 | CCOc1ccc(NC(=O)c2cc(Cl)ccc2Cl)cc1 [Example A3, 2,5-dichloro-N-(4-ethoxyphenyl)benzamide] | 1080 nM
4 | COC[C@@H](CC(C)C)NC(=O)c1cc2cc(OC)ccc2o1 [Example A7, (R)-5-methoxy-N-(1-methoxy-4-methylpentan-2-yl)benzofuran-2-carboxamide] | 460 nM
5 | CCC(CC(C)C)NC(=O)c1cc2cc(C)ccc2o1 (stereo not shown) [Example A8, 5-methyl-N-(5-methylhexan-3-yl)benzofuran-2-carboxamide] | 500 nM
6 | COC(=O)[C@@H](CC(C)C)NC(=O)c1ccc2occc2c1 [Example A9, (R)-methyl 2-(benzofuran-5-carboxamido)-4-methylpentanoate] | 710 nM
7 | CCCC(CCC)NC(=O)c1cc2cc(OC)ccc2o1 [Example A10, N-(heptan-4-yl)-5-methoxybenzofuran-2-carboxamide] | 910 nM
8 | CCC(COC)NC(=O)c1cc2cc(Cl)ccc2o1 (stereo not shown) [Example A11, 5-chloro-N-(1-methoxybutan-2-yl)benzofuran-2-carboxamide] | 1050 nM
9 | CCCC(NC(=O)c1cc2cc(OC)ccc2o1)C(C)C (stereo not shown) [Example A12, 5-methoxy-N-(2-methylhexan-3-yl)benzofuran-2-carboxamide] | 1130 nM
10 | CCC(CC)NC(=O)c1cc2cc(OC)ccc2o1 [Example A13, 5-methoxy-N-(pentan-3-yl)benzofuran-2-carboxamide] | 1140 nM
11 | COC(=O)C(CCSC)NC(=O)c1cc2cc(OC)ccc2o1 (stereo not shown) [Example A14, methyl 2-(5-methoxybenzofuran-2-carboxamido)-4-(methylthio)butanoate] | 1140 nM
12 | CCOC(=O)[C@@H]1CCCC[C@H]1NC(=O)c1cc2cc(OC)ccc2o1 [Example A15, (1R,2R)-ethyl 2-(5-methoxybenzofuran-2-carboxamido)cyclohexanecarboxylate] | 1140 nM
13 | CCC(NC(=O)c1cc2cc(OC)ccc2o1)C(C)C (stereo not shown) [Example A16, 5-methoxy-N-(2-methylpentan-3-yl)benzofuran-2-carboxamide] | 1180 nM
14 | COc1ccc2oc(C(=O)NC(C(C)C)C(C)C)cc2c1 [Example A17, N-(2,4-dimethylpentan-3-yl)-5-methoxybenzofuran-2-carboxamide] | 1200 nM
15 | CCCC(CC(C)C)NC(=O)c1cc2cc(OC)ccc2o1 (stereo not shown) [Example A18, 5-methoxy-N-(2-methylheptan-4-yl)benzofuran-2-carboxamide] | 1270 nM

Same assay, conditions: read-out: EC50 for activation of a hT1R1/hT1R3 umami receptor expressed in an HEK293 cell line

Row | SMILES | EC50
16 | O=C(NC1CCc2ccccc21)c1ccc2c(c1)OCO2 (stereo not shown) [Example 118, Benzo[1,3]dioxole-5-carboxylic acid indan-1-ylamide] | 1200 nM
17 | CCC(CC)NC(=O)c1ccc(OC)c(C)c1 [Example 119, 4-methoxy-3-methyl-N-(pentan-3-yl)benzamide] | 400 nM
18 | Cc1ccc(CCNC(=O)c2occc2C)cc1 [Example 120, 3-methyl-N-(p-tolylethyl)furan-2-carboxamide] | 6000 nM
19 | COc1ccc(CNC(=O)c2ccccc2-n2cccc2)c(OC)c1 [Example 121, N-(2,4-dimethoxybenzyl)-2-(1H-pyrrol-1-yl)benzamide] | 1660 nM
20 | COc1ccc(CNC(=O)C(=O)NCCCc2ccccn2)c(OC)c1 [Example 127, N-(2,4-Dimethoxy-benzyl)-N′-(3-pyridin-2-yl-propyl)-oxalamide] | 1840 nM
21 | COc1ccc(CNC(=O)C(=O)NCCc2ccccn2)cc1 [Example 128, N-(4-Methoxybenzyl)-N′-(2-pyridin-2-yl-ethyl)-oxalamide] | 750 nM
22 | COc1ccc(CNC(=O)C(=O)NCCc2ncccc2C)c(OC)c1 [Example 129, N-(2,4-Dimethoxybenzyl)-N′-(2-(3-methylpyridin-2-yl)ethyl)oxalamide] | 1640 nM
23 | O=C(NCCc1ccccn1)C(=O)NCc1ccccc1Cl [Example 136, N-(2-chlorobenzyl)-N′-(2-(pyridin-2-yl)ethyl)oxalamide] | 10 nM
24 | O=C(NCCc1ccccn1)C(=O)NCc1cccc2c1OCCO2 [Example 137, N-((2,3-dihydrobenzo[b][1,4]dioxin-5-yl)methyl)-N′-(2-(pyridin-2-yl)ethyl) oxalamide] | 300 nM
25 | O=C(NCCc1ccccn1)C(=O)NCc1ccc2c(c1)OCO2 [Example 138, N-(benzo[d][1,3]dioxol-5-ylmethyl)-N′-(2-(Pyridin-2-yl)ethyl)oxalamide] | 500 nM
26 | CCc1ccc(CNC(=O)C(=O)NCCc2ccccn2)cc1 [Example 139, N-(4-Ethylbenzyl)-N′-(2-(pyridin-2-yl)ethyl)oxalamide] | 790 nM
27 | O=C(NCCc1ccccn1)C(=O)NCc1ccc2occc2c1 [Example 140, N-(Benzofuran-5-ylmethyl)-N′-(2-(pyridin-2-yl)ethyl)oxalamide] | 1780 nM
28 | COC(=O)c1ccc(CNC(=O)C(=O)NCCc2ccccn2)cc1 [Example 141, N-((4-Methoxycarbonylphenyl)methyl)-N′-(2-(pyridin-2-yl)ethyl)oxalamide] | 3630 nM
29 | CC(=O)Oc1ccccc1CNC(=O)C(=O)NCCc1ccccn1 [Example 142] | 8500 nM
30 | COc1ccc(CNC(=O)C(=O)NC(C)Cc2ccccn2)c(OC)c1 (stereo not shown) [Example 143, N-(2,4-Dimethoxybenzyl)-N′-(1-(Pyridin-2-yl)propan-2-yl)oxalamide] | 400 nM
31 | COc1ccc(CNC(=O)C(=O)NCC(C)c2ccccn2)c(OC)c1 (stereo not shown) [Example 144, N-(294-Dilmethoxybenzyl)-N′-(2-(pyridin-2-yl)propyl)oxalamide] | 1070 nM
32 | Cc1ccccc1CNC(=O)C(=O)NCCc1ccccn1 [Example 145] | 590 nM
33 | COc1cccc(CNC(=O)C(=O)NCCc2ccccn2)c1OC [Example 146, N-(2,3-Dimethoxybenzyl)-N′-(2-(pyridin-2-yl)ethyl)oxalamide] | 690 nM
34 | CSc1ccccc1CNC(=O)C(=O)NCCc1ccccn1 [Example 147, N-(2-(Methylthio)benzyl)-N′-(2-(pyridin-2-yl)ethyl)oxalamide] | 960 nM
35 | O=C(NCCc1ccccn1)C(=O)NCc1ccccc1O [Example 148, N-(2-Hydroxybenzyl)-N′-(2-(pyridin-2-yl)ethyl)oxalamide] | 3110 nM
36 | O=C(NCCc1ccccn1)C(=O)NCc1cccc2c1OCO2 [Example 149, N-(Benzo[d][1,3]dioxol-4-ylmethyl)-N′-(2-(pyridin-2-yl)ethyl)oxalamide] | 170 nM
37 | O=C(NCCc1ccccn1)C(=O)NCc1cc2ccccc2s1 [Example 150, N-(Benzo[b]thiophen-2-ylmethyl)-N′-(2-(pyridin-2-yl)ethyl)oxalamide] | 740 nM
38 | O=C(NCCc1ccccn1)C(=O)NCc1nc2ccccc2s1 [Example 151, N-(Benzo[d]thiazol-2-ylmethyl)-N′-(2-(pyridin-2-yl)ethyl)oxalamide] | 4400 nM
39 | Cc1ccc(CNC(=O)C(=O)NCCc2ccccn2)o1 [Example 152, N-((5-Methylfuran-2-yl)methyl)-N2-(2-(pyridin-2-yl)ethyl)oxalamide] | 4900 nM
40 | Cc1occc1CNC(=O)C(=O)NCCc1ccccn1 [Example 153, N-((2-Methylfuran-3-yl)methyl)-N′-(2-(pyridin-2-yl)ethyl)oxalamide] | 1820 nM
